# Like-named read-outs stand apart in the source and are kept apart here.
# How the values were obtained:
# ShHTL7 [1] = molecular target: T1, ShHTL7 (Striga hermonthica, UniProt A0A0M3PNA2); experiment: Competitive inhibition of ShHTL7 with Yoshimulactone Green (YLG) as substrate; format: biochemical
# In short: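 YLG hydrolysis by ShHTL7 followed by fluorescence (ex 480/em 520 nm) every 1 min for 30 min; compounds and YLG from fresh DMSO stocks. After subtracting no-enzyme background, the linear 8-min increase was used; IC50 fitted from relative inhibition versus compound concentration.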
# ShHTL7 [2] = molecular target: T1, ShHTL7; experiment: ShHTL7-hydrolysis reaction analysis (HPLC); format: biochemical; details: 10 μM compound, 30 °C, 30 min
# Experimental: Compounds 4a, (R)- and (S)-4a, 4g-i, and rac-GR24 were dissolved in DMSO and prepared as stock solution ([…]) just before use. A 200 μL of the reaction solution consisting of PBS buffer (pH 7.3), 10 μM samples, and 10 μg recombinant ShHTL7 or its mutants was incubated at 30 °C for 30 min; with the reaction solution (200 μL) containing PBS buffer (pH 7.3) and 10 μM samples as the blank control[40],[52]. Subsequently, the reaction was terminated by adding 200 μL of methanol, and then the reaction mixture was shaken for 10 s and centrifuged at 5310 × g for 60 s. The supernatant was filtered and the remaining amount of samples was analyzed by HPLC. The relative percentages of hydrolysis were obtained by using the amount of compounds in blank control as reference.
# Supplementary Fig. 11. Hydrolysis of 4a, (R)-4a, (S)-4a, 4g-i, and rac-GR24 by ShHTL7 at 30 °C for 30 min. The remaining amounts of compounds in recombinant ShHTL7 protein and buffer solution were determined by HPLC analysis. The relative percentages of hydrolysis were calculated by using the amount of compounds in the buffer as reference. The error bar indicates SD (n = 3 biologically independent experiments).
# (§1) (1 picture or pasted object on this page, not shown here)
# [3] = tested on: ShHTLs (10 HTL proteins in S. hermonthica); experiment: YLG-based competition assay on HTL proteins of S. hermonthica; format: biochemical, Striga hermonthica; details: Supplementary Fig. 27
# Text: (§2) In P. aegyptiaca, 5 KAI2s have been proposed as the SL receptors for the regulation of seed germination. […] The high sequence similarity may explain the consistency of these compounds in inducing germination in both S. hermonthica and P. aegyptiaca.
# (§3) The excitation and emission wavelengths of YLG are 480 and 520 nm, respectively. We used a fluorescence spectrophotometer (CARY Eclipse) to detect the fluorescence intensity change of YLG during the enzymatic hydrolysis assay process. All the testing compounds and YLG were dissolved in DMSO and prepared as stock solutions just before use. […] The changes of fluorescence at 520 nm of each well were recorded every 1 min for 30 min. Using the reaction mixture without adding enzyme and tested compounds as the background control. After subtracting the background hydrolysis, a linear fluorescence increase in 8 min was used for further inspection. The IC50 values were determined via fitting relative inhibition percentages with the varying concentrations of compounds in Microsoft Excel.
# (§4) Supplementary Fig. 27. Binding of compounds 4a, (R)- and (S)-4a, and 4g-i to the HTL proteins in S. hermonthica and KAI2 protein homologs in P. aegyptiaca. In the competitive inhibitory activity assay, YLG (3 µM) was used as the fluorogenic substrate. Error bar indicates SD (n = 3 biologically independent experiments).
# as §1
# [4] = tested on: PaKAI2s (5 KAI2 protein homologs in P. aegyptiaca); experiment: YLG-based competition assay on KAI2 protein homologs of P. aegyptiaca; format: biochemical, Phelipanche aegyptiaca; details: Supplementary Fig. 27
# Text: as §2, §3, §4, §1
# T1 sequence (A0A0M3PNA2 entry or part of it): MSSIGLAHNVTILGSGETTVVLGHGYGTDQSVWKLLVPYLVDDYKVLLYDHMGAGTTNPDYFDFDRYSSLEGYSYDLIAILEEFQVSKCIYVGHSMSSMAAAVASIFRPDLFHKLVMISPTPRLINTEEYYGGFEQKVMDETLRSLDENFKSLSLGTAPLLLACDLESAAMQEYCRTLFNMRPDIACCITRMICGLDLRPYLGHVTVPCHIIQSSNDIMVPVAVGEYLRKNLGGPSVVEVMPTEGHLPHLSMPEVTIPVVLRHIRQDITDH
smiles,measurement,setting,value
"CC1=C[C@H](O/C=C2/C(=O)O[C@@H]3c4ccccc4C[C@H]23)OC1=O (racemic) [rac-GR24, reference compound]",IC50,"ShHTL7 [1]; ShHTL7, YLG competition, Supplementary Fig. 27, read-out: IC50, replicate 1",0.633 µM
same,IC50,"ShHTL7 [1]; ShHTL7, YLG competition, Supplementary Fig. 27, read-out: IC50, replicate 2",0.842 µM
same,IC50,"ShHTL7 [1]; ShHTL7, YLG competition, Supplementary Fig. 27, read-out: IC50, replicate 3",0.614 µM
same,IC50,"ShHTL7 [1]; ShHTL7, average of 3 replicates, Supplementary Fig. 27, read-out: IC50, average",0.696 µM
same,IC50,"ShHTL7 [1]; YLG used as the substrate, means ± SD, n = 3, read-out: IC50 (Supplementary Table 1)",0.73 ± 0.11 µM
same,hydrolysis by ShHTL7,ShHTL7 [2],51.9%
same,"relative percentage of hydrolysis by ShHTL7, source data average","ShHTL7 [2]; Supplementary Figs. 11, 20a, 24a",51.9391%
same,IC50,"[3]; ShHTL2, YLG competition, read-out: IC50, replicate 1",26.2 µM
same,IC50,"[3]; ShHTL2, YLG competition, read-out: IC50, replicate 2",25.2 µM
same,IC50,"[3]; ShHTL2, YLG competition, read-out: IC50, replicate 3",25.5 µM
same,IC50,"[3]; ShHTL2, average of 3 replicates, read-out: IC50, average",25.7 µM
same,IC50,"[3]; ShHTL3, YLG competition, read-out: IC50, replicate 1",9.4 µM
same,IC50,"[3]; ShHTL3, YLG competition, read-out: IC50, replicate 2",7.11 µM
same,IC50,"[3]; ShHTL3, YLG competition, read-out: IC50, replicate 3",8.7 µM
same,IC50,"[3]; ShHTL3, average of 3 replicates, read-out: IC50, average",8.4 µM
same,IC50,"[3]; ShHTL4, YLG competition, read-out: IC50, replicate 1",0.239 µM
same,IC50,"[3]; ShHTL4, YLG competition, read-out: IC50, replicate 2",0.239 µM
same,IC50,"[3]; ShHTL4, YLG competition, read-out: IC50, replicate 3",0.28 µM
same,IC50,"[3]; ShHTL4, average of 3 replicates, read-out: IC50, average",0.253 µM
same,IC50,"[3]; ShHTL5, YLG competition, read-out: IC50, replicate 1",5.89 µM
same,IC50,"[3]; ShHTL5, YLG competition, read-out: IC50, replicate 2",6.85 µM
same,IC50,"[3]; ShHTL5, YLG competition, read-out: IC50, replicate 3",6.74 µM
same,IC50,"[3]; ShHTL5, average of 3 replicates, read-out: IC50, average",6.49 µM
same,IC50,"[3]; ShHTL6, YLG competition, read-out: IC50, replicate 1",2.28 µM
same,IC50,"[3]; ShHTL6, YLG competition, read-out: IC50, replicate 2",1.87 µM
same,IC50,"[3]; ShHTL6, YLG competition, read-out: IC50, replicate 3",2.23 µM
same,IC50,"[3]; ShHTL6, average of 3 replicates, read-out: IC50, average",2.13 µM
same,IC50,"[3]; ShHTL8, YLG competition, read-out: IC50, replicate 1",6.15 µM
same,IC50,"[3]; ShHTL8, YLG competition, read-out: IC50, replicate 2",6.78 µM
same,IC50,"[3]; ShHTL8, YLG competition, read-out: IC50, replicate 3",4.51 µM
same,IC50,"[3]; ShHTL8, average of 3 replicates, read-out: IC50, average",5.81 µM
same,IC50,"[3]; ShHTL9, YLG competition, read-out: IC50, replicate 1",4.91 µM
same,IC50,"[3]; ShHTL9, YLG competition, read-out: IC50, replicate 2",4.06 µM
same,IC50,"[3]; ShHTL9, YLG competition, read-out: IC50, replicate 3",5.17 µM
same,IC50,"[3]; ShHTL9, average of 3 replicates, read-out: IC50, average",4.71 µM
same,IC50,"[3]; ShHTL10, YLG competition, read-out: IC50, replicate 1",4.93 µM
same,IC50,"[3]; ShHTL10, YLG competition, read-out: IC50, replicate 2",6.56 µM
same,IC50,"[3]; ShHTL10, YLG competition, read-out: IC50, replicate 3",5.51 µM
same,IC50,"[3]; ShHTL10, average of 3 replicates, read-out: IC50, average",5.67 µM
same,IC50,"[3]; ShHTL11, YLG competition, read-out: IC50, replicate 1",3.27 µM
same,IC50,"[3]; ShHTL11, YLG competition, read-out: IC50, replicate 2",3.14 µM
same,IC50,"[3]; ShHTL11, YLG competition, read-out: IC50, replicate 3",3.16 µM
same,IC50,"[3]; ShHTL11, average of 3 replicates, read-out: IC50, average",3.19 µM
same,IC50,"[4]; KAI2C, YLG competition, read-out: IC50, replicate 1",7.31 µM
same,IC50,"[4]; KAI2C, YLG competition, read-out: IC50, replicate 2",5.69 µM
same,IC50,"[4]; KAI2C, YLG competition, read-out: IC50, replicate 3",6.56 µM
same,IC50,"[4]; KAI2C, average of 3 replicates, read-out: IC50, average",6.52 µM
same,IC50,"[4]; KAI2d1, YLG competition, read-out: IC50, replicate 1",1.78 µM
same,IC50,"[4]; KAI2d1, YLG competition, read-out: IC50, replicate 2",2.83 µM
same,IC50,"[4]; KAI2d1, YLG competition, read-out: IC50, replicate 3",2.39 µM
same,IC50,"[4]; KAI2d1, average of 3 replicates, read-out: IC50, average",2.33 µM
same,IC50,"[4]; KAI2d2, YLG competition, read-out: IC50, replicate 1",5.14 µM
same,IC50,"[4]; KAI2d2, YLG competition, read-out: IC50, replicate 2",2.89 µM
same,IC50,"[4]; KAI2d2, YLG competition, read-out: IC50, replicate 3",3.46 µM
same,IC50,"[4]; KAI2d2, average of 3 replicates, read-out: IC50, average",3.83 µM
same,IC50,"[4]; KAI2d3, YLG competition, read-out: IC50, replicate 1",2.27 µM
same,IC50,"[4]; KAI2d3, YLG competition, read-out: IC50, replicate 2",2.04 µM
same,IC50,"[4]; KAI2d3, YLG competition, read-out: IC50, replicate 3",1.55 µM
same,IC50,"[4]; KAI2d3, average of 3 replicates, read-out: IC50, average",1.95 µM
same,IC50,"[4]; KAI2d4, YLG competition, read-out: IC50, replicate 1",6.41 µM
same,IC50,"[4]; KAI2d4, YLG competition, read-out: IC50, replicate 2",5.83 µM
same,IC50,"[4]; KAI2d4, YLG competition, read-out: IC50, replicate 3",7.25 µM
same,IC50,"[4]; KAI2d4, average of 3 replicates, read-out: IC50, average",6.5 µM

# — article PMC9271048, “Probing strigolactone perception mechanisms with rationally designed small-molecule agonists stimulating germination of root parasitic weeds” (Nature Communications, 2022)
